Experimental data taken from PMC5431435, “A short artificial antimicrobial peptide shows potential to prevent or treat bone infections” (Scientific Reports, 2017).

Experiments:
[1] = system: human primary osteoblast-like cells; type: cell-based
Experimental: (1) For the cytotoxicity test, 1 × 10^4 cells were seeded in 48-well plates with cultivation medium (CM) DMEM/Ham’s F-12 (D/H; Biochrom, Germany) + 10% fetal calf serum (FCS; Biochrom, Germany) + 1% penicillin/streptomycin (P/S; Biochrom, Germany) + 0.05 mM L-ascorbic-2 phosphate (L-Asc) + 0.05 mM β-glycerolphosphate (β-Glyc) and incubated overnight at 37 °C, 5% CO2 and 95% relative humidity. After adding the AMPs (3–542 µg/ml - depending on the AMP) or gentamicin (8–1024 µg/ml) in CM with 1% FCS, without Pen/Strep, cells were cultured for three days. Cell viability was determined with an AlamarBlue® assay before adding the AMPs and after 3 days. Alkaline phosphatase activity was measured on day 3.
Alamar Blue® (Biozol, Germany) was done according to the manufacturer’s instruction.

[2] = system: human primary osteoblast-like cells; experiment: Scratch assay (cell migration); type: cell-based
Experimental: (3) The effect of AMP2 on cell migration was assessed. Human primary osteoblast-like cells were seeded into 24-well plates and cultured in cultivation media. After reaching confluence, medium was removed and a cross scratch was made using a 10 µl pipette tip using a modified protocol. […] Using ImageJ software (version 1.4.8.; https://imagej.nih.gov/ij/) the diameter of the scratch was measured and the closure over time calculated (n = 3).

[3] = system: S. aureus biofilm; experiment: Biofilm assay by microcalorimetry and plating (MBCB); type: cell-based, Staphylococcus aureus; conditions: for inhibition of the biofilm compared to the growth control: MH++, n = 6
Experimental: To confirm MIC of the AMP2 by isothermal microcalorimetry, three different bouillons were tested: Mueller-Hinton II bouillon with adjusted cations (MH^++; BBL, Germany), Mueller-Hinton bouillon with low cations (MH^+; with 3–4 mg/l Ca^2+ and 5–6 mg/l Mg^2+; Oxoid, Germany) and Mueller-Hinton bouillon without cations (MH^−; Merck, Germany). AMP2 concentrations of 2–33 µg/ml were tested with the three different bouillons and gentamicin concentrations of 0.125–2 µg/ml were analyzed with MH^++. Staphylococcus aureus (ATCC 29213, 300 µl with 10^5 cfu/ml) was added to each microcalorimetry glass ampoule (Waters; Germany) containing 3.7 ml of AMP or gentamicin solution of (n = 3). The ampoules were hermetically sealed and heat flow (W) was measured for 24 hours in the calorimeter TAM III (TA Instruments, USA). For the biofilm assay, S. aureus biofilm was grown on glass beads (4 mm diameter, 60 µm pores; ROBU Glasfilter-Geräte, Germany) in MH^++ bouillon at 37 °C in an aerobe atmosphere for 24 hours. After washing with sodium chloride, beads were incubated with AMP2 (133, 267, 533 µg/ml) or daptomycin (128 µg/ml) in MH^++ bouillon for another 24 hours at 37 °C. Beads were washed again and added to the glass ampoule with fresh MH^++ bouillon. The total heat (J) was measured for 48 hours in the calorimeter. A concentration, which inhibits minimum 90% of biofilm, can be defined as the minimal biofilm inhibitory concentration (MICB). All samples were tested with n = 6.
Furthermore, the MBC for biofilms (MBCB) where 99.9% of all bacteria are killed was determined. After measurement, bouillon and glass beads were plated on CA plates and incubated for 24 hours at 37 °C in an aerobe atmosphere.

[4] = system: human primary osteoblast-like cells; conditions: differentiation medium with 17 or 133 µg/ml AMP2, days 0, 7, 14, 21
Experimental: Confluent cells were cultured for 21 days in cultivation medium (CM), differentiation medium (DM: D/H + 10% FCS + 1% P/S + 0.5 mM L-Asc + 10 mM β-Glyc + 100 nM dexamethasone + 1.5 mM calcium chloride) and DM with a low (17 µg/ml) and a high (133 µg/ml) AMP2 concentration. Medium was changed every 3–4 days and fresh AMP was added by each change. Cells from two donors were used and the experiments were done in triplicate (n = 6).
Cells were incubated with 0.13% w/v 4-nitrophenyl phosphate disodium salt hexahydrate (Sigma-Aldrich, Germany) dissolved in 0.1 M AP-buffer (50 mM glycine, 100 mM Tris-Base, 1 mM MgCl2 in dH2O) at pH 10.5 for 30 min at 37 °C and absorbance was measured at 405 nm wavelength. […]
Cells were fixed with 3.7% v/v formalin for 10 min at RT and incubated with 0.5% w/v alizarin red (Sigma-Aldrich, Germany) in dH2O for 10 min at RT. Quantification was done by removing staining with 5% w/v SDS in 5 mM HCl and measuring absorbance at 570 nm.
RNA was isolated after 0, 7, 14 and 21 days in culture using the NucleoSpin RNA Kit (Macherey Nagel, Germany). […] For all primers, amplification efficiencies were analyzed and mean normalized expression (MNE) ratios were calculated using the ΔΔCt method with efficiency correction and normalization to the control (d0 of differentiation) and 18 S ribosomal RNA used as a reference gene.

KRRWRIWLV [AMP2]
concentrations with no negative effect on cell viability [1]: < 267 µg/mL
concentrations with significant inhibition of viability compared to the control group [1]: ≥ 267 µg/mL
migration after 24 hours ([2]; 67 µg/ml AMP2): reduced the migration of cells
gap size after 48 hours ([2]; 67 µg/ml AMP2, 0.1% FCS, gap at 0 hours = 100%): 71%
migration after 24 hours ([2]; 133 µg/ml AMP2 (data not shown)): no migration was observed
gap after 48 hours ([2]; 133 µg/ml AMP2, 0.1% FCS): still complete open
free-area after 24 hours ([2]; 4–33 µg/ml AMP2 (range also covers positive control and CM without AMP2), 0.1% FCS, gap at 0 hours = 100%): 50–66%
cell-free area after 48 hours ([2]; AMP2 concentrations up to 33 µg/ml, 0.1% FCS, gap at 0 hours = 100%): 12–28%
inhibition of the biofilm compared to the growth control ([3]; 133 µg/ml AMP2, total heat after 48 hours): 13 ± 4%
inhibition of the biofilm, single samples ([3]; 267 µg/ml AMP2, five of the six samples (the sixth completely killed the bacteria)): 18–38%
inhibition of the biofilm compared to the growth control ([3]; 267 µg/ml AMP2, total heat after 48 hours): 35 ± 29%
killing of the biofilm (MBCB determination by plating samples and glass beads) ([3]; 533 µg/ml AMP2, all samples, no growth on agar plates): totally killed
inhibition of the biofilm compared to the growth control ([3]; 533 µg/ml AMP2, total heat after 48 hours): 97 ± 1%
effect on the osteogenic differentiation (expression of RUNX2, AP, Col1) [4]: no effect
